Structures are written as SMILES.

Experiment in all cases: Pre-emergent herbicidal activity (Table A)
Holding throughout (type): in vivo

Test [1] concerns Morningglory. Particulars: Ipomoea, pre-emergence, Mogl, 11.2 kg/ha, 10-14 days, read-out: herbicidal rating (% inhibition). Put shortly:
(§1)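 Percent inhibition per species, scored on a rating scale, after pre-emergent soil incorporation: test compound in acetone or water carrier mixed into cover soil, layered over seeded topsoil or vegetative propagules.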

Test [2] relates to Barnyardgrass. To be noted: Echinochloa crus-galli, pre-emergence, Bygr, 11.2 kg/ha, 10-14 days, read-out: herbicidal rating (% inhibition). The method, boiled down:
as §1

Test [3] relates to Downy Brome. Particulars: Bromus tectorum, pre-emergence, Dobr, 11.2 kg/ha, 10-14 days, read-out: herbicidal rating (% inhibition). Put shortly: as §1
The test system of test [4] is Velvetleaf. Particulars: Abutilon theophrasti, pre-emergence, Vele, 11.2 kg/ha, 10-14 days, read-out: herbicidal rating (% inhibition). The method, boiled down: as §1
Test [5] deals with Cocklebur. To be noted: Xanthium strumarium, pre-emergence, Cobu, 11.2 kg/ha, 10-14 days, read-out: herbicidal rating (% inhibition). The method, boiled down:
as §1

Test [6] relates to Yellow Nutsedge. To be noted: Cyperus, pre-emergence, Yens, 11.2 kg/ha, 10-14 days, read-out: herbicidal rating (% inhibition). The method, boiled down:
as §1

Test [7] deals with Annual Bluegrass. To be noted: pre-emergence, Anbg, 11.2 kg/ha, 10-14 days, read-out: herbicidal rating (% inhibition). Put shortly: (§2)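 Seeds were sown on compacted topsoil and covered with soil into which test compound (in acetone or water carrier) had been mixed at 11.2 kg/ha. Pans were kept watered on a greenhouse bench, and percent inhibition was scored as a rating about 10-14 days (usually 11) after treatment.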

Test [8] relates to Indian Mustard. Particulars: Brassica juncea, pre-emergence, Inmu, 11.2 kg/ha, 10-14 days, read-out: herbicidal rating (% inhibition). Put shortly:
as §2

For test [9], the system named is Wild Buckwheat. To be noted: Fallopia convolvulus, pre-emergence, Wibw, 11.2 kg/ha, 10-14 days, read-out: herbicidal rating (% inhibition). The method, boiled down: as §2
The subject of test [10] is Seedling Johnsongrass. To be noted: Sorghum halepense, pre-emergence, Sejg, 11.2 kg/ha, 10-14 days, read-out: herbicidal rating (% inhibition). The method, boiled down: as §2

With `COC(=O)c1c(OC)nc(C(F)(F)F)c(C(=O)SC)c1CC1CC1` [Compound 119, 3-pyridinecarboxylic acid, 4-(cyclopropylmethyl)-2-methoxy-5-[(methylthio)carbonyl]-6-(trifluoromethyl)-, methyl ester], the inhibition (as a rule, how much of the control response was suppressed) at 11200 g/ha in test [1] is 75 to 100%; in test [2] it was 75 to 100%; in [3] it was 75 to 100%; in test [4], 75 to 100%; in test [5] it was 50 to 74%; in test [6], 75 to 100%. Besides, the inhibition at 11200 g/ha in [7], in test [8], in [9] and in [10] was 75 to 100% throughout.

For the compound `COC(=O)c1c(OC)nc(C(F)(F)F)c(N=C2CCCO2)c1CC(C)C` [Compound 121, 3-pyridinecarboxylic acid, 5-[(dihydro-2(3H)-furanylidene)amino]-2-methoxy-4-(2-methylpropyl)-6-(trifluoromethyl)-, methyl ester], the inhibition at 11200 g/ha was 50 to 74% in [1]; 75 to 100% in test [2]; 75 to 100% in test [3]; 75 to 100% in [4]; 75 to 100% in test [5]; 50 to 74% in [6]. In addition, the inhibition at 11200 g/ha in test [7], in test [8], in test [9] and in test [10] was 75 to 100% each time.

In the case of `COC(=O)c1c(OC)nc(C(F)(F)F)c(C2OCCS2)c1CC(C)C` (stereo not drawn) [Compound 122, 3-pyridinecarboxylic acid, 2-methoxy-4-(2-methylpropyl)-5-(1,3-oxathiolan-2-yl)-6-(trifluoromethyl)-, methyl ester], the inhibition at 11200 g/ha in [1] lay in the range of 75 to 100%; in [2] it was 75 to 100%; in test [3], 75 to 100%; in test [4], 75 to 100%; in [5] it was 0 to 24%; in test [6], 50 to 74%. The inhibition at 11200 g/ha in test [7], in [8], in [9] and in [10] was 75 to 100% throughout.

For the compound `COC(=O)c1c(OC)nc(C(F)(F)F)c(C2OCC(=O)O2)c1CC(C)C` (stereo not drawn) [Compound 123, 3-pyridinecarboxylic acid, 2-methoxy-4-(2-methylpropyl)-5-(4-oxo-1,3-dioxolan-2-yl)-6-(trifluoromethyl)-, methyl ester], the inhibition at 11200 g/ha lay within 25 to 49% in [1]; 75 to 100% in test [2]; 75 to 100% in test [3]; 25 to 49% in test [4]; 0 to 24% in test [5]; 0 to 24% in test [6]. For the same compound, the inhibition at 11200 g/ha in test [7], in test [8], in test [9] and in test [10] was 75 to 100% in each case.

For the compound `CCOC=NNC(=O)c1c(C(F)(F)F)nc(OC)c(C(=O)OC)c1CC(C)C` [Compound 124, 3,5-pyridinedicarboxylic acid, 2-methoxy-4-(2-methylpropyl)-6-(trifluoromethyl)-, 3-methyl ester, 5-(ethoxymethylene)hydrazide], the inhibition at 11200 g/ha in test [1], in test [2], in test [3], in test [4], in [5] and in test [6] was 0 to 24% throughout. Moreover, the inhibition at 11200 g/ha in [7], in test [8], in [9] and in test [10] was 0 to 24% in each case.

In the case of `COC(=O)c1c(OC)nc(C(F)(F)F)c(-c2nnco2)c1CC(C)C` [Compound 125, 3-pyridinecarboxylic acid, 2-methoxy-4-(2-methylpropyl)-5-(1,3,4-oxadiazo1-2-yl)-6-(trifluoromethyl)-, methyl ester], the inhibition at 11200 g/ha fell in the range of 75 to 100% in [1]; 75 to 100% in [2]; 75 to 100% in test [3]; 75 to 100% in [4]; 0 to 24% in test [5]; 0 to 24% in test [6]. Moreover, the inhibition at 11200 g/ha in [7], in test [8], in test [9] and in test [10] was 75 to 100% throughout.

Take `COC(=O)c1c(OC)nc(C(F)(F)F)c(C2OCC[S+]2[O-])c1CC(C)C` (stereo not drawn) [Compound 126, 3-pyridinecarboxylic acid, 2-methoxy-4-(2-methylpropyl)-5-(1,3-oxathiolan-2-yl)-6-(trifluoromethyl)-, methyl ester, S-oxide]: the inhibition at 11200 g/ha in [1] fell in the range of 75 to 100%; in test [2] it was 75 to 100%; in [3], 75 to 100%; in test [4] it was 75 to 100%; in [5] it was 25 to 49%; in [6], 0 to 24%. Moreover, the inhibition at 11200 g/ha in test [7], in test [8], in test [9] and in test [10] was 75 to 100% in each case.

With `COC(=O)c1c(OC)nc(C(F)(F)F)c(C2OCCS2(=O)=O)c1CC(C)C` (stereo not drawn) [Compound 127, 3-pyridinecarboxylic acid, 2-methoxy-4-(2-methylpropyl)-5-(3,3-dioxo-1,3-oxathiolan-2-yl)-6-(trifluoromethyl)-, methyl ester], the inhibition at 11200 g/ha in [1] was in the range of 25 to 49%; in [2], 75 to 100%; in test [3], 75 to 100%; in test [4], 25 to 49%; in test [5], 0 to 24%; in [6], 0 to 24%. The inhibition at 11200 g/ha in [7] was 75 to 100%; in test [8], 50 to 74%; in test [9] it was 50 to 74%; in test [10], 75 to 100%.

As for `COC(=O)c1c(OC)nc(C(F)(F)F)c(C=NCCO)c1CC(C)C` [Compound 128], the inhibition at 11200 g/ha in test [1] was 50 to 74%; in [2] it was 75 to 100%; in test [3], 75 to 100%; in test [4] it was 25 to 49%; in test [5], 0 to 24%; in [6] it was 0 to 24%. Also, the inhibition at 11200 g/ha lay within 75 to 100% in test [7], 75 to 100% in test [8], 50 to 74% in test [9] and 75 to 100% in test [10].

Regarding `COC(=O)c1c(OC)nc(C(F)(F)F)c(-c2nccs2)c1CC(C)C` [Compound 129, 3-pyridinecarboxylic acid, 2-methoxy-4-(2-methylpropyl)-5-(2-thiazolyl)-6-(trifluoromethyl)-, methyl ester], the inhibition at 11200 g/ha lay in the range of 75 to 100% in test [1]; 75 to 100% in [2]; 75 to 100% in test [3]; 75 to 100% in test [4]; 50 to 74% in test [5]; 75 to 100% in [6]. For the same compound, the inhibition at 11200 g/ha in test [7], in [8], in test [9] and in [10] was 75 to 100% each time.

`COC(=O)c1c(OC)nc(C(F)(F)F)c(-c2ncco2)c1CC(C)C` [Compound 130, 3-pyridinecarboxylic acid, 2-methoxy-4-(2-methylpropyl)-5-(2-oxazolyl)-6-(trifluoromethyl)-, methyl ester]: the inhibition at 11200 g/ha in test [1] lay within 75 to 100%; in test [2] it was 75 to 100%; in [3] it was 75 to 100%; in [4] it was 75 to 100%; in test [5] it was 25 to 49%; in [6], 75 to 100%. Besides, the inhibition at 11200 g/ha in test [7], in [8], in test [9] and in test [10] was 75 to 100% throughout.

Turning to `COc1nc(C(F)(F)F)c(C(=O)n2cccn2)c(CC(C)C)c1C(=O)SC` [Compound 131, 3-pyridinecarbothioic acid, 2-methoxy-4-(2-methylpropyl)-5-(1H-pyrazo1-1-ylcarbonyl)-6-(trifluoromethyl)-, S-methyl ester], the inhibition at 11200 g/ha in test [1] is 75 to 100%; in [2], 75 to 100%; in test [3], 75 to 100%; in test [4], 75 to 100%; in [5], 50 to 74%; in test [6] it was 75 to 100%. The inhibition at 11200 g/ha in [7], in test [8], in test [9] and in test [10] was 75 to 100% each time.
